Measurements published in publication PMC12668310, “High‐Throughput Synthesis and Screening of a Cyanimide Library Identifies Selective Inhibitors of ISG15‐Specific Protease mUSP18” (Angewandte Chemie (International Ed. in English), 2025).
Read-outs that look alike come from different tables or passages of the source.

Biological target: T1, mUSP18 (Mus musculus, UniProt Q9WTV6)
T1 construct: (46-368); His-tag (N); made in house
T1 sequence (Q9WTV6 46-368): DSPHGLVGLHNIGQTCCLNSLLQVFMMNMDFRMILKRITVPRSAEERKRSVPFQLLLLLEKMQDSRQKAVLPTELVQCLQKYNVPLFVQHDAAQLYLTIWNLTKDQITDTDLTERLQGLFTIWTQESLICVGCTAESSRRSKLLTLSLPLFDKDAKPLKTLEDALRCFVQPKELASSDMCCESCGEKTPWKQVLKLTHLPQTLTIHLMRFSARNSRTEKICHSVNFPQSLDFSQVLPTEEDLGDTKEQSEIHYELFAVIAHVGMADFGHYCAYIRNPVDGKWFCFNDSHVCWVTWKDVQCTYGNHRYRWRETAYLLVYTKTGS
Assay: High-throughput screening, ISG15ct-RhoMP, single dose 1.25 µM
Type: biochemical, murine

[1] = mUSP18 %inhibition, carboxylic acid (CA) building block alone, read-out: %inh CA only
[2] = mUSP18 %inhibition, carboxylic acid (CA) with coupling reagents DIC/HOBT, read-out: %inh CA + DIC/HOBT

O=C(O)c1nc(N2CCOCC2)ncc1Cl [CA458]
inhibition at 1.25 µM [1]: 2.77% | inhibition at 1.25 µM [2]: -1.69%

CNS(=O)(=O)c1ccc(-c2ccccc2OC(F)(F)F)c(C(=O)O)c1 [CA434]
inhibition at 1.25 µM [1]: -0.67% | inhibition at 1.25 µM [2]: -3.53%

Cc1sc(-n2cnnn2)c(C(=O)O)c1C [CA327]
inhibition at 1.25 µM [1]: -5.75% | inhibition at 1.25 µM [2]: 4.6%

O=C(O)c1ccnn1C1CCC1 [CA316]
inhibition at 1.25 µM [1]: 3.75% | inhibition at 1.25 µM [2]: -3.62%

CSCCC(NC(C)=O)C(=O)O (stereo not shown) [CA001]
inhibition at 1.25 µM [1]: 4.64% | inhibition at 1.25 µM [2]: -9.16%

O=C(O)c1ccc(Cl)c(N2CCCS2(=O)=O)c1 [CA281]
inhibition at 1.25 µM [1]: 4.15% | inhibition at 1.25 µM [2]: 14.1%

O=C(O)Cc1csc(-n2cccc2)n1 [CA183]
inhibition at 1.25 µM [1]: 4.52% | inhibition at 1.25 µM [2]: 3.13%

O=C(CC1(C(=O)O)CCCC1)N1CCOCC1 [CA332]
inhibition at 1.25 µM [1]: 2.56% | inhibition at 1.25 µM [2]: -3.79%

CN1CCN(c2ccccc2C(=O)O)CC1 [CA101]
inhibition at 1.25 µM [1]: 13.5% | inhibition at 1.25 µM [2]: 12.2%

O=C(O)[1C@@H]1C[1C@H]1c1ccco1 [CA116]
inhibition at 1.25 µM [1]: 14.9% | inhibition at 1.25 µM [2]: 4.8%

O=C(O)c1ccn(-c2ncc(C(F)(F)F)cc2Cl)n1 [CA135]
inhibition at 1.25 µM [1]: 4.28% | inhibition at 1.25 µM [2]: 10.4%

O=C(O)Cc1cnn(-c2ccccc2)n1 [CA301]
inhibition at 1.25 µM [1]: -3.64% | inhibition at 1.25 µM [2]: 0.63%

Cc1ccc(-c2cc(C(=O)O)[nH]n2)o1 [CA205]
inhibition at 1.25 µM [1]: 0.0344% | inhibition at 1.25 µM [2]: 4.51%

Cc1nc(CN2CCCC2C(=O)O)no1 (stereo not shown) [CA127]
inhibition at 1.25 µM [1]: 2.84% | inhibition at 1.25 µM [2]: 5.46%

COc1ccc(OCc2cc(C)on2)c(C(=O)O)c1 [CA200]
inhibition at 1.25 µM [1]: 0.4% | inhibition at 1.25 µM [2]: 3.72%

O=C(O)c1ncoc1C1CC1 [CA112]
inhibition at 1.25 µM [1]: 13.7% | inhibition at 1.25 µM [2]: 16.4%

CCCN(CCC)S(=O)(=O)c1ccc(C(=O)O)cc1 [CA041]
inhibition at 1.25 µM [1]: -0.96% | inhibition at 1.25 µM [2]: -9.25%

O=C(O)CCc1cccnc1 [CA058]
inhibition at 1.25 µM [1]: -2.47% | inhibition at 1.25 µM [2]: -16.4%

O=C(O)c1cc(-n2ccnn2)ccc1F [CA168]
inhibition at 1.25 µM [1]: 11.2% | inhibition at 1.25 µM [2]: -1.08%

O=C(O)Cc1ccn(-c2ccccc2)n1 [CA246]
inhibition at 1.25 µM [1]: 4.69% | inhibition at 1.25 µM [2]: 5.35%

Cn1cc(S(=O)(=O)N2CCOCC2)cc1C(=O)O [CA324]
inhibition at 1.25 µM [1]: -1.59% | inhibition at 1.25 µM [2]: 1.03%

O=C(O)c1ccc(-c2ccccc2)o1 [CA250]
inhibition at 1.25 µM [1]: 3.02% | inhibition at 1.25 µM [2]: 5.27%

O=C(O)c1csc(-c2ncccn2)n1 [CA111]
inhibition at 1.25 µM [1]: 12.3% | inhibition at 1.25 µM [2]: 14.7%

O=C(O)c1ccc(-n2cccn2)cc1 [CA287]
inhibition at 1.25 µM [1]: 1.15% | inhibition at 1.25 µM [2]: -3.85%

O=C(O)c1cc(Cl)nc(N2CCCC2)c1 [CA244]
inhibition at 1.25 µM [1]: 9.03% | inhibition at 1.25 µM [2]: 3.68%

O=C(O)c1occc1COc1ccccc1 [CA195]
inhibition at 1.25 µM [1]: 11% | inhibition at 1.25 µM [2]: 6.35%

Cc1cc(C(=O)O)ccc1Br [CA028]
inhibition at 1.25 µM [1]: -3.46% | inhibition at 1.25 µM [2]: -11%

O=C(O)c1ccc(Cn2ccnn2)o1 [CA363]
inhibition at 1.25 µM [1]: 4.39% | inhibition at 1.25 µM [2]: -0.81%

C#CCCCC(=O)O [CA029]
inhibition at 1.25 µM (read-out: %inh CA + DIC/HOBT): -11.6% | inhibition at 1.25 µM (read-out: %inh CA only): -3.41%

Cc1nc(-c2cccnc2)sc1C(=O)O [CA212]
inhibition at 1.25 µM [1]: 10.5% | inhibition at 1.25 µM [2]: 0.87%

CC(C)(C)OC(=O)N1C[C@@H](O)C[C@@H]1C(=O)O [CA063]
inhibition at 1.25 µM [1]: -5.22% | inhibition at 1.25 µM [2]: -16.4%

Cc1ccc(CN2C(=O)CCC2C(=O)O)cc1 (stereo not shown) [CA337]
inhibition at 1.25 µM [1]: -0.24% | inhibition at 1.25 µM [2]: -1.16%

O=C(O)CCn1ccc(C(=O)N2CCCC2)n1 [CA406]
inhibition at 1.25 µM [1]: -2.83% | inhibition at 1.25 µM [2]: -11.1%

CN(Cc1cccnc1)S(=O)(=O)c1cc(C(=O)O)n(C)c1 [CA203]
inhibition at 1.25 µM [1]: 0.22% | inhibition at 1.25 µM [2]: 4.09%

CCn1ccc(-c2cc(C(=O)O)no2)n1 [CA447]
inhibition at 1.25 µM [1]: 9.91% | inhibition at 1.25 µM [2]: -2.33%

O=C(O)c1cn[nH]c1C1CC1 [CA439]
inhibition at 1.25 µM [1]: -3.97% | inhibition at 1.25 µM [2]: 20.1%

Cc1csc(N2CCCC(C(=O)O)C2)n1 (stereo not shown) [CA226]
inhibition at 1.25 µM [1]: 2.29% | inhibition at 1.25 µM [2]: 3.37%

O=C(O)c1cnn(-c2ccncc2)c1 [CA125]
inhibition at 1.25 µM [1]: 7.48% | inhibition at 1.25 µM [2]: 7.42%

Cn1cc(-c2cc(C(=O)O)n[nH]2)cn1 [CA419]
inhibition at 1.25 µM [1]: -7.23% | inhibition at 1.25 µM [2]: -1.62%

CCOc1oc(-c2ccco2)nc1C(=O)O [CA329]
inhibition at 1.25 µM [1]: 14.4% | inhibition at 1.25 µM [2]: 1%

CC(=O)C(=O)O [CA079]
inhibition at 1.25 µM [1]: -7.45% | inhibition at 1.25 µM [2]: -14.4%
